Assay results: patent publication US20250290117A1, “MOLECULAR PHENOTYPIC ANTIMICROBIAL SUSCEPTIBILITY TESTING” (priority 2024, published 2025)

Tests used:
[1] = test system: Escherichia coli; experiment: Molecular phenotypic antimicrobial susceptibility test (extraction or DNA purification prior to PCR); assay type: cell-based
Summary of the method: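 Semi-quantitative PCR measures growth after exposure, so sensitivity means prevented growth and resistance means allowed growth. Exposure lasts 12-16 hours at single or multiple breakpoint concentrations in Mueller Hinton Broth, with the inoculum at 0.5 McFarland.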

[2] = test system: M. morganii; experiment: Molecular phenotypic antimicrobial susceptibility test, specimen with two detected pathogens incubated together without isolation; assay type: cell-based, Morganella morganii; details: M. morganii in specimen with two detected pathogens (E. coli and M. morganii) incubated together
Experimental: Detection of Molecular Phenotypic Antimicrobial Susceptibility. Disclosed herein are the methods for the detection of phenotypic antimicrobial susceptibility via molecular methods. The present invention describes how a specimen 100 with a known microbial load is incubated and then exposed to a panel of antimicrobial agents to determine sensitivity (prevention of growth) or resistance (allowance of growth) to the specific antimicrobial agents tested utilizing molecular methods.
Sample Collection. Specimens 100 are collected from patients using sterile collection processes that are employed in routine clinical care. Specimens are transported to the testing facility in boric acid preservative. Specimens 100 are subsequently divided into a first sample 104 and a second sample 108.
Preparation of the Specimens for Testing. The specimens 100 are put through a pathogen identification process using PCR technology (e.g., using the first sample 104). The process for pathogen isolation includes steps of harvesting the pathogen (e.g., via centrifugation), isolating pathogen DNA via a DNA isolation and/or purification kit, and performing PCR on the pathogen DNA via PCR components (e.g., primers, enzymes, buffers) as would be known to the skilled artisan. Simultaneously, an additional aliquot of the same specimen (e.g., the second sample 108) is placed with liquid culture media and incubated for 4-6 hours. This aliquot is used for antimicrobial susceptibility testing if indicated based on the pathogen detection results. After pathogen identification is completed and if more than 10,000 cells/mL of bacteria (e.g., eligible bacteria) are detected in the source specimen, the second sample 108 then enters the antimicrobial susceptibility phase of testing. Specimens 100 with lower pathogen loads could also be utilized in the antibiotic susceptibility phase of testing with or without a longer incubation period.
Preparation of Antimicrobial Susceptibility Testing Plates. Antimicrobial solutions are prepared at known concentrations. The specific antimicrobials and their concentrations are selected based on the pathogen of interest and the described antimicrobial resistance breakpoints for that specimen pathogen and antimicrobial combination. These antimicrobials have been selected based on those commonly utilized by healthcare providers in routine clinical care for the specific type of suspected infection. The number and types of antimicrobials utilized can be customized based on the infection source, pathogen detected, patient-specific factors such as allergies or other health conditions (e.g., chronic kidney disease or concurrent medication use), or healthcare provider preferences such as antimicrobial availability or cost.
The antimicrobial solutions are prepared in liquid culture media (such as Muller Hinton Broth) to achieve the desired antimicrobial concentration and are then stored at −80° C. until use. For a given specimen, each antimicrobial is tested at a single or multiple antimicrobial concentration(s) which is its established breakpoints for sensitivity. The antimicrobial solutions are prepared and plated out for each specific pathogen. This allows ease of use on the day of testing after defrosting the plate 112. Table 1, which illustrates the results of molecular phenotypic antimicrobial susceptibility testing when more than one organism is present in the source specimen, provides an example of an antimicrobial plate 112 prepared for this purpose. Of note, control wells containing only culture media are present on all plates 112. This allows for evaluation of pathogen load when no antimicrobial is present.
Specimen Exposure to Antimicrobial Agents. The 1 mL aliquot of the specimen 100 previously mixed with culture media and incubated is obtained. Using optical density measurements as a guide, the specimen 100 is diluted to 0.5 McFarland. […]

## Trimethoprim/Sulfamethoxazole [TMP/SMX]
[1]; E. coli isolate 1, Ct at control (average) 21.238
  Ct at Sensitive Breakpoint: 32.294
[1]; E. coli isolate 1, at sensitive breakpoint
  Molecular Antimicrobial Susceptibility Result: Sensitive (Antimicrobial wells with pathogen load detected below the control wells (typically >2 cycle thresholds later) may be reported as Sensitive)
[1]; E. coli isolate 2, Ct at control (average) 21.270
  Ct at Sensitive Breakpoint: 28.875
[1]; E. coli isolate 2, at sensitive breakpoint
  Molecular Antimicrobial Susceptibility Result: Sensitive (Antimicrobial wells with pathogen load detected below the control wells (typically >2 cycle thresholds later) may be reported as Sensitive)
[1]; E. coli isolate 3, Ct at control (average) 22.0995
  Ct at Sensitive Breakpoint: 30.605
[1]; E. coli isolate 3, at sensitive breakpoint
  Molecular Antimicrobial Susceptibility Result: Sensitive (Antimicrobial wells with pathogen load detected below the control wells (typically >2 cycle thresholds later) may be reported as Sensitive)
[1]; E. coli isolate 4, at sensitive breakpoint
  Molecular Antimicrobial Susceptibility Result: Resistant
[1]; E. coli isolate 5, Ct at control (average) 21.0933
  Ct at Sensitive Breakpoint: 29.12
[1]; E. coli isolate 5, at sensitive breakpoint
  Molecular Antimicrobial Susceptibility Result: Sensitive (Antimicrobial wells with pathogen load detected below the control wells (typically >2 cycle thresholds later) may be reported as Sensitive)
[2]; Ct of controls (average) 19.99
  Ct of Sensitive Breakpoint: 32.93
[2]; at sensitive breakpoint
  Molecular Antimicrobial Susceptibility Result: Sensitive (Antimicrobial wells with pathogen load detected below the control wells (typically >2 cycle thresholds later) may be reported as Sensitive)
